Measured values published in patent publication US20090176983A1, “Tenofovir Disoproxil Hemi-Fumaric Acid Co-Crystal” (ULTIMORPHIX TECHNOLOGIES B.V., priority 2007, published 2009).

Assays:
[1] = Dynamic Vapour Sorption (DVS) moisture sorption isotherm; type: physicochemical; details: for total uptake of water vapours: DVS, 25° C., relative humidity 0% to 95% in steps of 5%, 1 h per step
Method: Moisture sorption isotherms were measured using a DVS-1 system of Surface Measurement Systems (London, UK). Differences in moisture uptake of various forms of a solid material indicate differences in the relative stabilities of the various solid forms for increasing relative humidity. The experiment was carried out at a constant temperature of 25° C.
A sample of about 11.5 mg of form TDFA 2:1 was spread in the DVS pan. The sample was dried at 0% RH for 7 h. Subsequently the relative humidity of the chamber was increased in steps of 5% units from 0% to 95% in order to monitor the sorption of water vapours. The samples remained in each of the steps for 1 h. Following, desorption was monitored by decreasing the relative humidity to 0% in steps of 5% units and remaining at each step for 1 h. The total uptake of water vapours was about 0.8%, which is line with the industry standard for hygroscopicity. In a similar DVS experiment using the starting material as purchased, the total vapour intake was about 4%, which is undesirable in formulation and requires additional measures.

[2] = Comparative pharmacokinetic study of TDFA 2:1 and ULT 1 (plasma tenofovir by LC-MS-MS); type: in vivo, Male wistar rats; details: rats, one capsule of approximately 15 mg by oral gavage; compared with fumarate salt form ULT 1; FIG. 5
Description: The plasma samples were further worked up for analysis by LC-MS-MS for their content of tenofovir. […] The concentration of tenofovir (the active metabolite of tenofovir DF) was quantified in each sample by means of LC-MS-MS against a calibration curve. From the PK data it is concluded that the hemifumarate co-crystal of tenofovir disoproxil, TDFA 2:1 is bioequivalent to the fumarate salt of tenofovir disoproxil form ULT 1, which is a commercially available fumarate salt of tenofovir disoproxil.

[3] = summary statement, versus Gilead 1

Molecule	total uptake of water vapours [1]	changes in the structure by XRPD at the end of the DVS experiment ([1]; solid material after the sorption-desorption cycle, FIG. 4)	hygroscopicity compared with known crystalline form of tenofovir DF (Gilead 1) [1, 3]	stability compared with known crystalline form of tenofovir DF (Gilead 1) [1, 3]	bioequivalence from PK data (concentration of tenofovir in plasma) [2]
co-crystal of tenofovir disoproxil and fumaric acid in a 2:1 molar ratio [TDFA 2:1]	about 0.8%	no any changes in the structure	less hygroscopic	more stable	bioequivalent
CC(C)OC(=O)OCOP(=O)(CO[C@H](C)Cn1cnc2c(N)ncnc21)OCOC(=O)OC(C)C.O=C(O)/C=C/C(=O)O [starting material, 9-[(R)-2-[[bis[[(isopropoxycarbonyl)oxy]methoxy]phosphinyl]-methoxy]propyl]adenine fumarate (1:1), reference compound]	about 4%	–	–	–	–
